Experimental data from patent publication US10696707B2, “Polyene macrolide derivative” (Shionogi & Co., Ltd., priority 2014, dated 2020).
≈ marks a conversion by molar mass, not a printed value. Where two headings read alike, the source gives them in different places.

What was measured:
[1] = tested on: HepG2 cells; assay type: cell-based; settings: human, 71 h
Procedure: The Cytotoxicith of the compounds of the present invention was evaluated by measuting cell numbers automatically using the cell image analyzer, Toxinsight® (Thermofisher Scientific).
HepG2 cells were seeded in 384-well black plates (100000 cells/mL) and allowed to attach for approximately 24 hours at 37° C. in humidified CO2 incubator. Test compounds and positive control (Fungizone®) were initially dissolved as concentrated 20 mmol/L stock solutions in DMSO and added to culture medium, to the final concentration; 1.6, 3.1, 6.3, 12.5, 25, 50, 100 μmol/L. The negative control well was treated with DMSO alone. After exposure of each test compound for approximately 71 hours, each well were added with Hoechst 33342, for staining of nuclei, diluted in D-PBS to the final concentration; 1 μg/mL, and after that, fixed with 4% paraformaldehyde. The cell number, stained with Hoechst 33342, was counted by Toxinsight® (Thermofisher Scientific) in each well. The mean value of cell number and the standard deviation (SD) was calculated (N=4).

[2] = tested on: red blood cells (5% RBC suspension); test: Test Example 2-2: in vitro hemolytic activity test (upper limit 200 μmol/L); assay type: cell-based; settings: Erythrocyte, read-out: hemolysis IC50
Outline: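 Washed defibrinated blood cells suspended at 5% in phenol-red-free Earle's medium, exposed to DMSO-dissolved compounds (top final 200 μmol/L, doubling dilutions) for 1 h at 37° C, 5% CO2. Supernatant A540 read; % hemolysis relative to water-lysed blood and DMSO control, IC50 derived, upper limit 200 μmol/L.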

[3] = Test Example 4: nephrotoxicity, kidney marker gene expression by quantitative RT-PCR after intravenous administration; assay type: in vivo; settings: mouse, kidney, mice, nephrotoxicity positive when ΔΔCt of two-third of target genes (Kim1, Timp1, Lcn2) >3
Procedure: (§1) The expression level of marker genes for nephrotoxicity was determined by quantitative RT-PCR to evaluate nephrotoxicity of the compound of the present invention. The compound of the present invention or vehicle was intravenously administered to mice and their kidneys were isolated. After removal of the kidney capsule, all of the kidneys were sliced into two equal halves, and stored at −80° C. in RNAlater® (Ambion) until use. Samples were disrupted and homogenized in QIAzol Lysis Reagent with TissueLyser (Qiagen), and total RNA was extracted using an RNeasy® Mini kit (Qiagen). Total RNA concentrations were determined to read OD260 by absorptiometer.
(§2) The level of expression of the following target genes was determined using one-step quantitative real-time PCR: Kim1, Timp1, and Lcn2. Total RNA (80 ng/2 μL) was used as the template, and TaqMan Gene Expression Assays (Applied Biosystems, for Haver1 (Kim1), assay ID: Mm00506686_m1; Timp1, Mm01341361_m1; Lcn2, Mm01324470_m1) or TaqMan Endogenous Controls (Gapdh, predesigned assay reagent supplied by ABI, Applied Biosystems) were employed as gene-specific probe and primer sets. Quantitative RT-PCR was performed using a QuantiTect™ Probe RT-PCR kit (Qiagen), and transcript levels were quantitated with an Applied Biosystems 7900HT Fast Real Time PCR System (Applied Biosystems). Reverse transcription and amplification conditions were set as follows: 50° C. for 30 min, 95° C. for 15 min, followed by 40 cycles at 95° C. for 15 s and 60° C. for 1 min. The resulting cycle threshold (Ct) value was processed based on the comparative Ct method (ΔΔCt Method), where Gapdh was used as an endogenous reference gene to normalize the expression level of target genes.
(§3) The ΔCt was calculated as follows: Ct, Gapdh−Ct, target gene.
(§4) The ΔΔCt was calculated as follows: ΔCt, treated sample−ΔCt, average of vehicle control sample.
(§5) Higher ΔΔCt values indicate higher expression rates of the target gene and therefore high risk for nephrotoxicity.

[4] = tested on: A. fumigatus ATCC204305; test: Antifungal activity test, MIC by broth microdilution (CLSI M38-A2); assay type: cell-based; settings: Aspergillus fumigatus
Outline: (§6)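 CLSI broth microdilution in RPMI 1640 with 2% glucose, 0.165 mol/L MOPS, pH 7.0; two-fold DMSO dilutions. MIC = lowest concentration giving 100% inhibition versus growth control.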

[5] = tested on: A. flavus ATCC204304; test: as above; assay type: cell-based; settings: Aspergillus flavus
Outline: as §6

[6] = tested on: C. albicans ATCC90028; test: Antifungal activity test, MIC by broth microdilution (CLSI M27-A3); assay type: cell-based; settings: Candida albicans
Outline: as §6

[7] = tested on: red blood cells (5% RBC suspension); test: Test Example 2-1: in vitro hemolytic activity test (upper limit 50, 80, 100 or 200 μmol/L); assay type: cell-based; settings: hemolysis method 200 (upper concentration 200 μmol/L); 5% RBC suspension, 37° C., one hour; read-out: hemolysis IC50
Outline: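 A 5% suspension of washed red cells in Earle's medium was exposed to doubling dilutions of compound from DMSO, with maxima of 50, 80, 100 or 200 μmol/L final, for 1 h at 37 °C, 5% CO2. Supernatant absorbance at 540 nm was normalised to water-lysed cells. IC50 is the concentration giving 50% hemolysis; ">" values exceed the top concentration.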

[8] = tested on: Kim1, Timp1, and Lcn2; test: Test Example 4: nephrotoxicity, kidney marker gene expression by quantitative RT-PCR after intravenous administration; assay type: in vivo; settings: mice, nephrotoxicity positive when ΔΔCt of two-third of target genes (Kim1, Timp1, Lcn2) >3
Procedure: as §1, §2, §3, §4, §5

[9] = comparative example, hemolysis method 200 (upper limit 200 μmol/L), 37° C., an hour
[10] = A. fumigatus ATCC204305, broth microdilution, 35° C., 24-48 hours, 100% inhibition, read-out: MIC
[11] = A. flavus ATCC204304, broth microdilution, 35° C., 24-48 hours, 100% inhibition, read-out: MIC
[12] = C. albicans ATCC90028, broth microdilution, 35° C., 24-48 hours, 100% inhibition, read-out: MIC

SMILES	cytotoxicity (lowest cytotoxicity concentration) [1] [µmol/L]	IC50 [2, 9] [µM]	MTD [3] [mg/kg]	MIC [4, 10] [µg/mL]	MIC [5, 11] [µg/mL]	MIC [6, 12] [µg/mL]	nephrotoxicity MTD [8] [mg/kg]	also measured
C[C@@H]1[C@H](O)[C@@H](C)/C=C/C=C/C=C/C=C/C=C/C=C/C=C/[C@H](O[C@@H]2O[C@H](C)[C@@H](O)[C@H](N)[C@@H]2O)C[C@@H]2O[C@](O)(C[C@@H](O)C[C@@H](O)[C@H](O)CC[C@@H](O)C[C@@H](O)CC(=O)O[C@H]1C)C[C@H](O)[C@H]2C(=O)O [AmB, Amphotericin B, reference compound]	<1.6	1.6	1					
C[C@@H]1[C@H](O)[C@@H](C)/C=C/C=C/C=C/C=C/C=C/C=C/C=C/[C@H](O[C@@H]2O[C@H](C)[C@@H](O)[C@H](N)[C@@H]2O)C[C@@H]2O[C@](O)(C[C@@H](O)C[C@@H](O)[C@H](O)CC[C@@H](O)C[C@@H](O)CC(=O)O[C@H]1C)C[C@H](O)[C@H]2NC(=O)NCCN [AmBAU, reference compound]	51.0		12					MIC ([4]; ATCC204305): 1 µg/mL (≈ 1.02 µM); MIC ([5]; ATCC204304): 1 µg/mL (≈ 1.02 µM); IC50 [2]: 58 µM; MIC ([6]; ATCC90028): 0.5 µg/mL (≈ 0.51 µM)
C[C@@H]1[C@H](O)[C@@H](C)/C=C/C=C/C=C/C=C/C=C/C=C/C=C/[C@H](O[C@@H]2O[C@H](C)[C@@H](O)[C@H](N)[C@@H]2O)C[C@@H]2O[C@](O)(C[C@@H](O)C[C@@H](O)[C@H](O)CC[C@@H](O)C[C@@H](O)CC(=O)O[C@H]1C)C[C@H](O)[C@H]2NC(=O)NCCC(=O)O [AmBCU, reference compound]	25.2		3	1 (≈ 0.99 µM)	1 (≈ 0.99 µM)	0.5 (≈ 0.495 µM)		
CNC(=O)N[C@H]1[C@@H]2C[C@@H](O[C@@H]3O[C@H](C)[C@@H](O)[C@H](N)[C@@H]3O)/C=C/C=C/C=C/C=C/C=C/C=C/C=C/[C@H](C)[C@@H](O)[C@@H](C)[C@H](C)OC(=O)C[C@H](O)C[C@H](O)CC[C@@H](O)[C@H](O)C[C@H](O)C[C@](O)(C[C@@H]1O)O2 [AmBMU, reference compound]	12.5	130	12	1 (≈ 1.05 µM)	1 (≈ 1.05 µM)	0.5 (≈ 0.525 µM)		
C[C@@H]1[C@H](O)[C@@H](C)/C=C/C=C/C=C/C=C/C=C/C=C/C=C/[C@H](O[C@@H]2O[C@H](C)[C@@H](O)[C@H](N)[C@@H]2O)C[C@@H]2O[C@](O)(C[C@@H](O)C[C@@H](O)[C@H](O)CC[C@@H](O)C[C@@H](O)CC(=O)O[C@H]1C)C[C@H](O)[C@H]2NC(=O)NC1(C#N)CC1 [I-105]							>24	IC50 [7]: > 200 µM
C[C@@H]1[C@H](O)[C@@H](C)/C=C/C=C/C=C/C=C/C=C/C=C/C=C/[C@H](O[C@@H]2O[C@H](C)[C@@H](O)[C@H](N)[C@@H]2O)C[C@@H]2O[C@](O)(C[C@@H](O)C[C@@H](O)[C@H](O)CC[C@@H](O)C[C@@H](O)CC(=O)O[C@H]1C)C[C@H](O)[C@H]2NC(=O)N/N=C/[C@H](O)CO [I-235]							>24	
